From PMC10779433, “Bidirectional Allosteric Coupling between PIP2 Binding and the Pore of the Oncochannel TRPV6” (International Journal of Molecular Sciences, 2024)
Like-named read-outs stand apart in the source and are kept apart here. Residues, ends and D or L forms follow the SMILES beside them. *: point of attachment. Palmitoyl = CCCCCCCCCCCCCCCC(=O)*

Columns and labels:
[1] = tested on: TRPV6 R470A; details: HEK293 cells, ref [47], cited from earlier work
Source text: (§1) Thereby, some mutants which were investigated in our previous publications are shown again to simplify comparison with other treatments.

[2] = tested on: TRPV6 K484A; details: HEK293 cells, ref [62], cited from earlier work
Source text: as §1

[3] = tested on: TRPV6 K484A; test: NFAT screen, TRPV6 K484A; format: cell-based, human; details: HEK293 cells; 5 μM cis-22a, 2 h, vs DMSO
Description: (§2) N-terminally TagRFP-labeled human TRPV6 (725 aa) was kindly provided by R. Bhardwaj and M. Hediger (University of Bern, Bern, Switzerland). This variant is translated from the first ATG codon and thus deviates from the non-ATG-initiated protein which is expressed in vivo (accession number NM_018646.6) by lacking 40 amino acids of the very N-terminus. For N-terminal labeling with EYFP, TRPV6 was cloned into pEYFP-C1 (Clontech) via EcoRI and SacII restriction sites. […]
(§3) After incubation, cover slips were carefully rinsed with phenol red-free DMEM supplemented with the compound and dosage corresponding to the previous incubation, which was then also present during imaging. […] Subcellular NFAT localization of TRPV6 expressing cells was again monitored on an Axiovert 135 inverted microscope (Zeiss, Oberkochen, Germany), as described in more detail before. […] Images were analyzed using Matlab2018a, differentiating between three cell populations based on the ratio of CFP emission intensity originating from the nucleus and the cytosol, similar to Schober et al. (2019).

[4] = tested on: TRPV6 W583F; test: NFAT screen, TRPV6 W583F; format: cell-based, human; details: HEK293 cells; 5 μM cis-22a, 2 h, vs DMSO
Description: as §2, §3

[5] = tested on: TRPV6 W583F; design: method as in PMID 33246965; details: ref [47], cited from earlier work
[6] = tested on: TRPV6 I575A; design: method as in PMID 33246965; details: HEK293 cells; 0.1 μM and 10 μM cis-22a; Figure 5B; ref [47]; cited from earlier work
[7] = tested on: TRPV6 H582A; test: NFAT screen, TRPV6 H582A; format: cell-based, human; details: HEK293 cells; 5 μM cis-22a, 2 h, vs DMSO; analysable cells hardly present
Description: as §2, §3

[8] = tested on: TRPV6 G488R; test: NFAT screen, TRPV6 G488R; format: cell-based, human; details: HEK293 cells; 5 μM cis-22a, 2 h, vs DMSO
Description: as §2, §3

[9] = tested on: TRPV6 I575A; test: Whole-cell patch clamp, TRPV6 I575A; format: cell-based, human; details: HEK293 cells, 10 μM pal-PIP2 peptide, Figure 5C (substitution reduces the inhibition)
Source text: (§4) N-terminally TagRFP-labeled human TRPV6 (725 aa) was kindly provided by R. Bhardwaj and M. Hediger (University of Bern, Bern, Switzerland). This variant is translated from the first ATG codon and thus deviates from the non-ATG-initiated protein which is expressed in vivo (accession number NM_018646.6) by lacking 40 amino acids of the very N-terminus. For N-terminal labeling with EYFP, TRPV6 was cloned into pEYFP-C1 (Clontech) via EcoRI and SacII restriction sites. Mutations (F468A, R470A, F472A, K484A/Q, G488R, R492A/Q, I575A, G579A, D580A/K, H582A, W583A/F, H587A, R589A, W593A, R632A/Q, R470A, W583F) were introduced using the QuickChange XL site-directed mutagenesis kit (Stratagene, San Diego, CA, USA) and Pfu DNA Polymerase (Promega, Madison, WI, USA). pTagRFP-hTRPV6 I575A was kindly provided by the lab of M. Hediger (University of Bern, Bern, Switzerland). Forward and reverse primers for site-directed mutagenesis were synthesized by Eurofins genomics GmbH (Wien, Vienna, Austria). Intactness of the constructs in terms of sequence was confirmed by sequencing (Microsynth Austria GmbH, Wien, Vienna, Austria; Eurofins genomics GmbH, Wien, Vienna, Austria). […]
(§5) Electrophysiological experiments were performed at 20 °C to 24 °C in whole-cell recording configurations of the patch clamp technique. […] The liquid junction potential was determined as 12 mV; the voltages were not adjusted. […]

[10] = tested on: TRPV6 W583F; test: Whole-cell patch clamp, TRPV6 W583F; format: cell-based, human; details: HEK293 cells, 10 μM pal-PIP2 peptide, Figure 5C
Source text: as §4, §5

## Cc1cccc(C2CCC(N3CCN(c4cccnc4)CC3)CC2)c1.O=C(O)C(F)(F)F (stereo not drawn) [cis-22a]
[1]; 0.1 μM cis-22a
  current inhibition vs TRPV6 WT: significantly reduced
[1]; 10 μM cis-22a, after 0.1 μM
  current inhibition vs TRPV6 WT: significantly reduced inhibition
[2]; 0.1 μM cis-22a
  current inhibition vs TRPV6 WT: significantly reduced
[2]; 10 μM cis-22a, after 0.1 μM
  current inhibition vs TRPV6 WT: significantly reduced inhibition
[3]
  reduction of nuclear NFAT localization: failed to significantly reduce NFAT nuclear localization
[4]
  change of nuclear NFAT localization: not significantly changed
[5]; HEK293 cells, 0.1 μM and 10 μM cis-22a, Figure 5B
  response to cis-22a vs TRPV6 WT: significantly reduced response
[5]; TRPV6 W583F
  IC50: ~6.19 µM
[6]
  response to cis-22a vs TRPV6 WT: significantly reduced response
[7]
  change of nuclear NFAT localization: nuclear NFAT localization was higher for cis-22a-treated cells compared to the DMSO control
[8]
  reduction of nuclear NFAT localization: impeded cis-22a-based reductions in nuclear NFAT localization

## CCCCCCCCCCCCCCCC(=O)N[C@@H](Cc1c[nH]cn1)C(=O)N[C@@H](CCCNC(=N)N)C(=O)N[C@@H](CCC(N)=O)C(=O)N[C@@H](CCCCN)C(=O)N[C@@H](Cc1c[nH]cn1)C(=O)N[C@@H](Cc1ccccc1)C(=O)N[C@@H](CCC(=O)O)C(=O)N[C@@H](CCCCN)C(=O)N[C@@H](CCCNC(=N)N)C(=O)N[C@@H](CCCNC(=N)N)C(N)=O [pal-PIP2 peptide] (Palmitoyl-HRQKHFEKRR-NH2)
[9]
  inhibitory effect of pal-PIP2 peptide vs WT: interfered with the inhibitory effect of the pal-PIP2 peptide
[10]
  sensitivity to peptide-based PIP2 sequestration vs WT: not changed compared to the wildtype control
